The source of these data is article PMC2674291 (The Open Biochemistry Journal, 2009).

Structures are written as SMILES.

Assay [1] relates to Phenoloxidase of the susceptible strain (POs). Put plainly: absorbance at […] nm, initial rate, microtiter plate. The note with it: 20 mM PBS pH 6.5; room temperature; partially purified enzyme. Format: biochemical, Plutella xylostella.
Assay [2] relates to Phenoloxidase of the resistant strain (POr). The conditions noted are these: 20 mM PBS pH 6.5; room temperature; partially purified enzyme.

Regarding `N[C@@H](Cc1ccc(O)c(O)c1)C(=O)O` [L-DOPA], the Km in assay [1] and in assay [2] was 1110 µM each time.
